Data taken from ChEMBL document CHEMBL1131258, “Synthesis and glutathione S-transferase structure-affinity relationships of nonpeptide and peptidase-stable glutathione analogues” (J Med Chem, 1998).

System: glutathione S-transferase (Schistosoma japonicum)
Assay: Affinity towards recombinant Glutathione S-transferase (GST) Enzyme; NA indicates No affinity; call rule not given here

| Structure (SMILES) | IC50 |
| --- | --- |
| O=C(O)CCCCCC(CS)CCCCC(=O)O (stereo not given) | Not Active |
| O=C(O)CCCCC(CS)CCCCC(=O)O | Not Active |
| O=C(O)CC/C=C/C(CS)CCCCC(=O)O (stereo not given) | Not Active |

Now from value to molecule:

| IC50 | Structure (SMILES) |
| --- | --- |
| Not Active | O=C(O)CC/C=C/C(CO)CCCCC(=O)O (stereo not given) |
| Not Active | O=C(O)CCCCCCC(CS)CCCC(=O)O (stereo not given) |
